{"source": "patent US20230000905A1", "about": "“IODINE AND POLYOL COMPOSITION, METHOD, AND USE” (priority 2020, published 2023)", "origin": "cited, not measured here", "test_system": "rhinovirus", "settings": "molecular iodine at the tested concentrations"}
{"smiles": "II", "note": "[molecular iodine]", "values": [{"measurement": "time to inactivate rhinovirus", "value": 30, "unit": "s"}]}
